According to US20250205152A1, “METHOD OF PREVENTING AGE-RELATED MACULAR DEGENERATION BY ADMINISTERING AN OCULAR DRUG DELIVERY INSERT” (EYEPOINT PHARMACEUTICALS, INC., priority 2022, published 2025):
“Also recorded” adds a separate entry of the source.

Assays:
[1] = Solubility of vorolanib in water; type: physicochemical
Procedure: Vorolanib has the chemical designation (S,Z)—N-(1-(Dimethylcarbamoyl) pyrrolidin-3-yl)-5-((5-fluoro-2-oxoindolin-3-ylidene)methyl)-2,4-dimethyl-1H-pyrrole-3-carboxamide. Synonyms include the term “X-82”. The molecular formula is C23H26FN5O3. The solubility of vorolanib in water is less than 10 μg/mL.

[2] = system: sodium Hyaluronate-induced retinal detachment; experiment: Sodium hyaluronate-induced retinal detachment model: OKT and OCT; type: in vivo, C57Bl/6 mice
Procedure: (§1) An 18-day study was conducted in age-matched and experimentally naive C57Bl/6 mice. Prior to experiments, the mice were randomly distributed into two separate study arms, and identification numbers were assigned to individual mice. Prior to dosing initiation, baseline experiments were conducted to measure visual acuity and contrast vision by optokinetic tracking (OKT), and to measure retinal and outer nuclear layer (ONL) thickness in images obtained by optical coherence tomography (OCT). On Day 1, and continuing until Day 18, the mice received once a day oral administration of vehicle (Arm 1), or Vorolanib at 40 mg/kg (Arm 2). On Day 2, bilateral subretinal injection of sodium hyaluronate was performed to induce retinal detachment. On Day 16, visual acuity and contrast vision thresholds were measured, and on Day 17, OCT was performed to measure retinal and ONL thickness. On Day 18, terminal collections were performed at either 30 minutes, or 4 hours, post-administration, with whole blood collected and processed to plasma, left eyes collected and fixed for histology, and right eyes collected and dissected to yield cornea, lens, retinal pigment epithelium (RPE)/choroid/sclera, and retina, separately.
Mouse eyes were dilated and the animals were anesthetized according to standard operating procedures. The mouse was placed on a regulated heating pad, and the posterior pole was visualized under magnification. A 12.7 mm 30-gauge insulin syringe was used to puncture the cornea just above the corneal limbus, avoiding any contact with the sclera and lens. The transvitreal subretinal injections were performed using a 10 μL Hamilton syringe with a 33-gauge blunt needle inserted through the corneal puncture across the vitreous, with the shaft aimed at the back of the eyecup, avoiding any trauma to the lens or iris. A total volume of 1 μL was delivered.
OKT is performed using an OptoMotry designed for rodent use (Cerebral Mechanics Inc.). In this non-invasive assessment, mice are placed onto a platform surrounded by 4 LCD screens which reside within a light-protected box. Visual stimuli are then presented to the mouse via the LCD screens and a masked observer visualizes and scores optokinetic tracking reflexes from a digital camcorder which is mounted on the top of the box. The monitors display continuous vertical sine wave gratings rotating across the monitors at 12 degrees/s which appear to the animal as a virtual three-dimensional rotating […]. The rotation of the virtual cylinder is constantly centered at the animal's viewing position to ensure a consistent viewing distance. Tracking movements are identified as slow, steady head movements in the direction of the rotating grating. For measurements of spatial frequency threshold, mice were tested at a range of spatial frequencies from 0.064 to 0.464 cycles/degree. […] All measurements of contrast threshold were performed at a spatial frequency threshold of 0.064 cycles/degree. The contrast threshold is calculated as a reciprocal of the Michelson contrast from the screen's luminance (maximum−minimum)/(maximum+minimum). The reciprocal of the contrast threshold is plotted.
Animals were anesthetized and eyes were dilated according to standard procedures. Following sedation and dilation, animals were secured on a platform and presented to a Micron
IV OCT module (Phoenix Research Inc.) for imaging. The total retina thickness and outer nuclear layer thickness were measured from vertical and horizontal scans within each eye, and the data was plotted as the average retinal thickness across the scans.
Graphs were generated using GraphPad Prism (v. 9.4.0). […]

[3] = Plasma and ocular tissue levels after oral vorolanib in the retinal detachment study; type: in vivo, C57Bl/6 mice; conditions: 40 mg/kg oral once a day
Procedure: as §1
(§2) Day 18 at 30 min±5 min following oral administration of vehicle or test agent: Terminal plasma collection; Enucleation of eyes with left eyes fixed in 10% NBF and right eyes dissected to yield cornea, lens, RPE/choroid/sclera, and retina, with tissue snap frozen in liquid N2 with tube and tissue weights recorded (n=4 mice/arm).
as §2, with “4 hr±15” for “30 min±5”
Oral gavage was performed on conscious mice by trained personnel; no anesthesia was required. […]

[4] = system: Swine (Mini-pig) Model of Laser-Induced Choroidal Neovascularization (CNV); experiment: Laser-induced choroidal neovascularization model, fluorescein angiography (CTLF); type: in vivo; conditions: Day 0
Procedure: Safety and efficacy of a vorolanib insert were evaluated in a Swine (Mini-pig) Model of Laser-Induced Choroidal Neovascularization (CNV). The primary objective of this study was to evaluate the long-term safety and inhibition of vascular permeability and neovascularization in a laser-induced model of choroidal neovascularization (CNV) using a vorolanib insert in swine.
On the day of lasering (Groups 1-4) animals were treated with an 810 nm diode laser delivered through an indirect ophthalmoscope. Approximately 6 single laser spots were placed between retinal veins. Both eyes underwent laser treatment according to the schedule in the table above.
On the day of intravitreal injections animals were anesthetized and the eyes were aseptically prepared. […] Animals were allowed to recover normally from the procedure. The pigs were given a topical drop of antibiotic ophthalmic solution 4-6 hours later, and then BID for 2 additional days with at least 6 hours between doses. Animals were dosed on either Day 0 immediately following laser CNV induction or 7 days prior to laser CNV induction according to the schedule in the table above.
Flourescein Angiography was done in both eyes in anesthetized animals at the timepoints as indicated in the experimental design table.

[5] = 40 mg/kg oral once a day, baseline to Day 17, OCT

solubility [1] [µg/mL] | presence in plasma ([3]; 18 consecutive days) | Molecule | overall effect in retinal detachment model ([2]; 40 mg/kg once a day for 18 consecutive days, compared to vehicle) | mean spatial frequency threshold (SFT) ([2]; 40 mg/kg oral once a day, Day 16) [cycles/degree] | contrast thresholds compared to vehicle ([2]; 40 mg/kg oral once a day, Day 16, P=0.0009) | loss of contrast vision, baseline to Day 16 ([2]; 40 mg/kg oral once a day, OKT) [%] | loss of visual acuity, baseline to Day 16 ([2]; 40 mg/kg oral once a day, OKT) [%] | loss of ONL thickness in horizontal scans [2, 5] | loss of ONL thickness in vertical scans [2, 5] [%] | total retinal thickness across the treatment arms ([2]; 40 mg/kg oral vs vehicle, OCT) | difference in mean SFT versus vehicle ([2]; Day 16) | mean retinal thickness across vertical and horizontal scans ([2]; across both arms and timepoints) | tissue distribution ([3]; 18 days) | detection in ocular tissues ([3]; up to 4 hours following the terminal dose) | efficacy in laser CNV model ([4]; 2 mg IVT) | Corrected Total Lesion Fluorescence (CTLF) value, change from Day 7 to Day 28 ([4]; Group 1: 2 mg, 50 μL/eye IVT)
< 10 | present in the plasma up to 4 hours | Cc1[nH]c(/C=C2\C(=O)Nc3ccc(F)cc32)c(C)c1C(=O)N[C@H]1CCN(C(=O)N(C)C)C1 [vorolanib, (S,Z)—N-(1-(Dimethylcarbamoyl)pyrrolidin-3-yl)-5-((5-fluoro-2-oxoindolin-3-ylidene)methyl)-2,4-dimethyl-1H-pyrrole-3-carboxamide] | significant neuroprotective effect | 0.306 | significantly higher; also recorded: statistically significant improvement | 41 | 23 | no loss | 1 | no statistically significant differences | not statistically significant | 222-229 μm | primarily in RPE/Choroid/Sclera tissue at levels that exceed plasma concentrations | within detectable range in all ocular tissues tested, except lens tissue | – | –
– | – | aflibercept: VEGF inhibitor (Regeneron), intravitreal injection, positive control | – | – | – | – | – | – | – | – | – | – | – | – | normal amounts of efficacy | largest reduction
